Molecular target: P. falciparum apicoplast DNA polymerase (Pf-apPOL) (Plasmodium falciparum, UniProt Q8ILY1)
Test: Fluorescence-based high-throughput DNA polymerase assay (molecular beacon), primary screen and dose-response
Type: biochemical
Method in brief: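 Single-point screening used 10 µM compound with 20 nM polymerase, 20 nM hairpin substrate and 6 µM dNTPs for 90 min at 25 °C. Confirmatory titrations (2.5–80 µM) followed fluorescence at three times, and IC50 was derived from a fit including a cooperativity term n.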

Sequence of P. falciparum apicoplast DNA polymerase (Pf-apPOL) (Q8ILY1 entry or part of it): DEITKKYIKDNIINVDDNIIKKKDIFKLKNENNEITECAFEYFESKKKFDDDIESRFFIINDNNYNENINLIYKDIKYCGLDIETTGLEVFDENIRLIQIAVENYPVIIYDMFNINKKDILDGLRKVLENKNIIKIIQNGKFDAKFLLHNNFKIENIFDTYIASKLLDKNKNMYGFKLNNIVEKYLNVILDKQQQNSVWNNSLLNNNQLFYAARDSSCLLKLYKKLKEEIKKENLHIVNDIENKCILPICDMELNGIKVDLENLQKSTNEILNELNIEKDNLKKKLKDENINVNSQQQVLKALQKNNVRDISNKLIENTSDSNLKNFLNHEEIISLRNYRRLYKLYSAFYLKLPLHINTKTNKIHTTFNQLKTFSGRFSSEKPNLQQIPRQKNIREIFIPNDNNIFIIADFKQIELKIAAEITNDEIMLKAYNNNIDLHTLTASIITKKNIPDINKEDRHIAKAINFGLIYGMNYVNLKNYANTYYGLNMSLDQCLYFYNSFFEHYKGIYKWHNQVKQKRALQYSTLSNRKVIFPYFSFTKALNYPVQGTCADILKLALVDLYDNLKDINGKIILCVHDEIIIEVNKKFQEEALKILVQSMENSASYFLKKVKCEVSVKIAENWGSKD

`O=C1c2ccccc2C(=O)c2c1oc1c3c(ccc21)OCN(C1CCCC1)C3` [KU0064306] was tested, and the “% inhibition Apo pol 10'” value (DRC-1; concentration 2.5; 10') was 14.122%, the “% inhibition Apol 90'” value (DRC-1; concentration 2.5; 90') was 11.9333% and the “% inhibition apPOL 180'” value (DRC-1; concentration 2.5; 180') was 9.893%. For the same compound, the “% inhibition Apo pol 10'” value (DRC-1; concentration 5; 10') was 20.6805%, the “% inhibition Apol 90'” value (DRC-1; concentration 5; 90') was 18.9077% and the “% inhibition apPOL 180'” value (DRC-1; concentration 5; 180') was 20.5988%. The “% inhibition Apo pol 10'” value (DRC-1; concentration 10; 10') was 48.1868%, the “% inhibition Apol 90'” value (DRC-1; concentration 10; 90') was 43.2395% and the “% inhibition apPOL 180'” value (DRC-1; concentration 10; 180') was 45.5926%. For the same compound, the “% inhibition Apo pol 10'” value (DRC-1; concentration 20; 10') was 73.389%, the “% inhibition Apol 90'” value (DRC-1; concentration 20; 90') was 72.2655% and the “% inhibition apPOL 180'” value (DRC-1; concentration 20; 180') was 74.7554%. For the same compound, the “% inhibition Apo pol 10'” value (DRC-1; concentration 40; 10') was 87.7037%, the “% inhibition Apol 90'” value (DRC-1; concentration 40; 90') was 89.2086% and the “% inhibition apPOL 180'” value (DRC-1; concentration 40; 180') was 90.8162%. For the same compound, the “% inhibition Apo pol 10'” value (DRC-1; concentration 80 (unit not given); 10') was 89.3485%, the “% inhibition Apol 90'” value (DRC-1; concentration 80; 90') was 90.7443% and the “% inhibition apPOL 180'” value (DRC-1; concentration 80; 180') was 92.3974%. The “% inhibition Apo pol 5'” value (DRC-2; 5'; concentration 5) was 23%, the “% inhibition Apo pol 5'” value (DRC-2; 5'; concentration 40) was 47% and the “% inhibition Apol 40'” value (DRC-2; 40'; concentration 2.5) was 17%. For the same compound, the “% inhibition Apol 40'” value (DRC-2; 40'; concentration 80) was 60%, the “% inhibition ApPOL 90'” value (DRC-2; 90'; concentration 2.5) was 17% and the “% inhibition ApPOL 90'” value (DRC-2; 90'; concentration 10) was 47%. For the same compound, the “% inhibition ApPOL 90'” value (DRC-2; 90'; concentration 20) was 60%, the “% inhibition apPOL 180'” value (DRC-2; 180'; concentration 5) was 23% and the “% inhibition apPOL 180'” value (DRC-2; 180'; concentration 10) was 47%. The “% inhibition Apo pol 5'” value (DRC-2; concentration 2.5; 5') was 16%, the “% inhibition Apol 40'” value (DRC-2; concentration 2.5; 40') was 17% and the “% inhibition ApPOL 90'” value (DRC-2; concentration 2.5; 90') was 17%. For the same compound, the “% inhibition apPOL 180'” value (DRC-2; concentration 2.5; 180') was 15%, the “% inhibition Apo pol 5'” value (DRC-2; concentration 5; 5') was 23% and the “% inhibition Apol 40'” value (DRC-2; concentration 5; 40') was 24%. For the same compound, the “% inhibition ApPOL 90'” value (DRC-2; concentration 5; 90') was 25%, the “% inhibition apPOL 180'” value (DRC-2; concentration 5; 180') was 23% and the “% inhibition Apo pol 5'” value (DRC-2; concentration 10; 5') was 42%. The “% inhibition Apol 40'” value (DRC-2; concentration 10; 40') was 46%, the “% inhibition ApPOL 90'” value (DRC-2; concentration 10; 90') was 47% and the “% inhibition apPOL 180'” value (DRC-2; concentration 10; 180') was 47%. The “% inhibition Apo pol 5'” value (DRC-2; concentration 20; 5') was 43%, the “% inhibition Apol 40'” value (DRC-2; concentration 20; 40') was 55% and the “% inhibition ApPOL 90'” value (DRC-2; concentration 20; 90') was 60%. For the same compound, the “% inhibition apPOL 180'” value (DRC-2; concentration 20; 180') was 63%, the “% inhibition Apo pol 5'” value (DRC-2; concentration 40; 5') was 47% and the “% inhibition Apol 40'” value (DRC-2; concentration 40; 40') was 62%. For the same compound, the “% inhibition ApPOL 90'” value (DRC-2; concentration 40; 90') was 68%, the “% inhibition apPOL 180'” value (DRC-2; concentration 40; 180') was 72% and the “% inhibition Apo pol 5'” value (DRC-2; concentration 80; 5') was 44%. The “% inhibition Apol 40'” value (DRC-2; concentration 80; 40') was 60%, the “% inhibition ApPOL 90'” value (DRC-2; concentration 80; 90') was 65% and the “% inhibition apPOL 180'” value (DRC-2; concentration 80; 180') was 70%. The “DNA Pol” value (primary screen value of the 186 hits; unit not given; 90 min, 10 µM) was 61 and the “DNA Pol” value (primary screen value; head prints only 'DNA Pol'; 90 min, 10 µM) was 61.
